# Source: patent US11214556B1, “Method of treating colorectal cancer” (King Abdulaziz University, priority 2019, dated 2022)
# What was measured:
# [1] = test system: baby hamster kidney (BHK) cell lines; test: Cytotoxicity against normal baby hamster kidney cells; format: cell-based; settings: 72 h
# Method: FIG. 3B is a graph illustrating the cytotoxic effect of 4112 against human colon adenocarcinoma cancer cells (HCT-116, Caco-2 and HT-29) vs. normal baby hamster kidney cells (BHK). All cells were exposed to different concentrations of 4112 for 72 h. The cell viability concentration curves were plotted, and the IC50 were determined. *denotes significance at P<0.001;
# Based on the favorable pharmacologic and physicochemical properties of MOS-1512, it was selected as a new lead for the second subset of compounds (MOS-1812 to MOS-5112). The compounds in this series contained variable groups at R^1 and R^2 that were all tested against the three cancer cell lines (HCT-116, Caco-2 and HT-29). […]
# The sulforhodamine B (SRB) assays were performed according to Skehan, P.; Storeng, R.; Scudiero, D.; Monks, A.; McMahon, J.; Vistica, D.; Warren, J. T.; Bokesch, H.; Kenney, S.; Boyd, M. R., New colorimetric cytotoxicity assay for anticancer-drug screening. […] Briefly, exponentially growing cells were trypsinized, counted and seeded at the appropriate densities (5000 cells/100 μL/well) into 96-well microtiter plates. […] The protein-bound dye was dissolved in 10 mM Tris base solution for (optical density) OD determination at 510 nm using a SpectraMax plus Microplate Reader (Molecular Devices, CA). […]
# HCT-116 cells [2] = test: Cell cycle analysis by flow cytometry; format: cell-based, human; settings: IC50 concentration, 24 h
# Excerpt: The exposure of the cells to 4112 led to a significant increase in the proportion of cells in pre-G1 phase (Up to 9-fold compared to the control). Accumulation of cells in pre-G1 phase, likely as a result of degradation or fragmentation of genetic material indicates a possible role for apoptosis through compound-induced growth inhibition.
# The cells were collected by trypsinization, washed with phosphate buffered saline (PBS) and fixed in ice-cold absolute alcohol. Thereafter, cells were stained using Cycletest™ Plus DNA Reagent Kit (BD Biosciences, San Jose, Calif.) according to the manufacturer's instructions. Cell cycle distribution was determined using a FACS Calibur flow cytometer (BD Biosciences, San Jose, Calif.).
# CACO-2 cells = test: SRB cytotoxicity assay, CACO-2; format: cell-based, human; settings: 72 h exposure, ± SEM
# Outline: (§1)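 Cells seeded at 5000/well, grown 24 h, then exposed 72 h at 37 °C to 0.01–100 μM compound or 1% DMSO in RPMI1640 with 10% FBS. TCA-fixed, SRB-stained, OD read at 510 nm; viability expressed relative to untreated control cells.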
# [3] = test system: HT-29 colon cancer cell spheroids (cancer stem cells); test: Primary (1°) colonosphere formation assay; format: cell-based, human
# Method: Compound 4112 and another potent compound 3712 were also evaluated for their ability to inhibit cancer stem cell proliferation using a primary (1°) colonosphere formation assay. In this assay, HT-29 colon cancer cells were grown in low adhesion plates to form spheres as previously described. See Patel, N. J.; Karuturi, R.; Al-Horani, R. A.; Baranwal, S.; Patel, J.; Desai, U. R.; Patel, B. B., Synthetic, non-saccharide, glycosaminoglycan mimetics selectively target colon cancer stem cells. ACS Chem Biol 2014, 9 (8), 1826-33, incorporated herein by reference in its entirety. Wells treated with the inventive compounds were compared to vehicle treated cells for primary sphere growth inhibition after 5 days of incubation. […] Of note, monolayer growth conditions are ideally suited for examining cellular proliferation, whereas spheroid growth conditions examine cancer stem cell growth and self-renewal properties.
# For primary sphere formation, cells were plated in nontreated, low adhesion, 96 wells plate at the concentration of 100 cells/100 μL/well in stem cell media (SCM) that consisted of DMEM:F12:AA (Gibco), supplemented with 1×B27 (Gibco), 20 ng/mL epidermal growth factor, and 10 ng/mL fibroblast growth factor (Sigma). After 4 h of incubation, vehicle (control) or 3712 and 4112 at the desired concentrations were added to each well (at least in triplicates for each sample). On day five, numbers of spheres ranging from […] in diameter were counted using phase contrast microscope and percent inhibition was calculated compared to control.
# HT-29 cells = test: SRB cytotoxicity assay, HT-29; format: cell-based, human; settings: monolayer, 72 h exposure, ± SEM
# Outline: as §1
# HCT-116 cells [4] = test: Annexin V/propidium iodide apoptotic cell determination; format: cell-based, human; settings: IC50 concentration
# Method: Apoptosis was determined by staining cells with Annexin V-fluorescein isothiocyanate (FITC) and counterstaining with propidium iodide (PI) using the Annexin V-FITC/PI apoptosis detection kit (BD Biosciences, San Diego, Calif., USA) according to the manufacturer's instructions. Briefly, 4×10^6 cell/T 75 flask were exposed to the IC50 of tested compound for 24 and 48 h. The cells were collected by trypsinization and 0.5×10^6 cells were washed twice with phosphate-buffered saline (PBS) and stained with 5 μl Annexin V-FITC and 5 μl PI in 1× binding buffer (BD Biosciences, San Jose, Calif., USA) for 15 min at room temperature in the dark. Analyses were performed using FACS Calibur flow cytometer (BD Biosciences, San Jose, Calif., USA).
# HCT-116 cells [5] = test: ROS accumulation by DCFDA staining; format: cell-based, human; settings: 24 and 48 h, compared to untreated cells
# Method: The elevation of oxidative stress inside cancer cells, consequent to treatment with 4112, was investigated via monitoring ROS release over time (24 and 48 h). In this test, the 2′,7′-dichlorofluorescin diacetate (DCFDA) dye was used to detect various ROS species and emit green fluorescence.
# To determine the effect of the newly synthesized compounds on the cellular redox status, two different free radical sensitive probe dichlorofluorescin diacetate (DCFDA) was used. Cells were cultured on sterile 22 mm^2 cover slips (Harvard Apparatus, MA, USA) in sterile six well plates at a density of 2×10^5 cells/well. […] At the end of the exposure, cells attached to cover slips were washed thrice with PBS and incubated with DCFDA 10 μM for 30 min at 37° C. in the dark. Thereafter, cells were washed thrice with PBS and the cover slips were then mounted on a glass slide with anti-fade mounting medium containing 4′,6′-diamidino-2-phenylindole, dihydrochloride (DAPI) (Sigma-Aldrich, St. Louis, Mo., USA), which was used as counter stain and viewed with an epifluorescence microscope, Leica, DM 5500 B (Leica, Buffalo Grove, Ill., USA) at a magnification of 60×. Data were captured digitally and quantified using the microscope provided software.
compound,measurement,setting,value
"CCCNC(=O)/C(=C/c1c[nH]c2ccccc12)NC(=O)/C=C/c1cccs1 [Compound 4112, (Z)-3-(1H-indol-3-yl)-N-propyl-2-[(E)-3-(thien-2-yl)acrylamidolacry]amide]",IC50,[1],77.6 ± 6.2 µM
same,increase in proportion of cells in pre-G1 phase compared to the control,HCT-116 cells [2],Up to 9 fold
same,IC50,CACO-2 cells,0.89 ± 0.04 µM
same,IC50,"[3]; HT-29 spheres, 5 days of incubation",18.9 ± 1.1 µM
same,inhibition of colon cancer spheroids formation,"[3]; spheroids >50 μm, 5 days",dose-dependent inhibition
same,IC50,HT-29 cells,1.65 ± 0.07 µM
same,cell population in early apoptosis,HCT-116 cells [4]; after 48 hours,17.5%
same,cell population in late apoptosis,HCT-116 cells [4]; after 48 hours,4.1%
same,viable cells,HCT-116 cells [4]; after 48 hours,72%
same,change in cell viability,HCT-116 cells [4]; at 24 hours,very little change in cell viability
same,accumulation of ROS,HCT-116 cells [5],causes accumulation of ROS
